Measured values from ChEMBL document CHEMBL1201862, “PubChem BioAssay data set” (2004).
Values belong to the compound of their own block, whether it stands above or below them. Activity calls are given as the source filed them.

How the values were obtained:
CAAX prenyl protease 2 = CAAX prenyl protease 2 (Homo sapiens, UniProt Q9Y256); test: inhibition of Ras-converting CAAX protease Rce1 – biochemical, yeast membranes, quenched-peptide fluorescence, cherry-pick, dose response (AID 588849)
[1] = inhibition of ADAM10 peptide cleavage – biochemical, FRET peptide substrate, recombinant human ADAM10, selectivity assay for ADAM17 exosite inhibitor project, dose response (AID 743259);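 further: ADAM10 enzyme cleaving a FRET peptide substrate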
[2] = molecular target: Disintegrin and metalloproteinase domain-containing protein 17 (Homo sapiens, UniProt P78536); test: exosite inhibitors of ADAM17, dose response, biochemical (AID 743260)
HEK293 [3] = test: optical interference in Abeta FP readout, dose response, artefact control for IDE activator project, biochemical, fluorescence polarization (AID 588442); type: functional, cell-based; conditions: Homo sapiens
Insulin-degrading enzyme [4] = molecular target: T1, Insulin-degrading enzyme (Homo sapiens, UniProt P14735); test: recombinant IDE activation, cell-free – biochemical, fluorescence polarization, counter-screen for IDE activator project, dose response (AID 588681)
T1 sequence (P14735 whole entry): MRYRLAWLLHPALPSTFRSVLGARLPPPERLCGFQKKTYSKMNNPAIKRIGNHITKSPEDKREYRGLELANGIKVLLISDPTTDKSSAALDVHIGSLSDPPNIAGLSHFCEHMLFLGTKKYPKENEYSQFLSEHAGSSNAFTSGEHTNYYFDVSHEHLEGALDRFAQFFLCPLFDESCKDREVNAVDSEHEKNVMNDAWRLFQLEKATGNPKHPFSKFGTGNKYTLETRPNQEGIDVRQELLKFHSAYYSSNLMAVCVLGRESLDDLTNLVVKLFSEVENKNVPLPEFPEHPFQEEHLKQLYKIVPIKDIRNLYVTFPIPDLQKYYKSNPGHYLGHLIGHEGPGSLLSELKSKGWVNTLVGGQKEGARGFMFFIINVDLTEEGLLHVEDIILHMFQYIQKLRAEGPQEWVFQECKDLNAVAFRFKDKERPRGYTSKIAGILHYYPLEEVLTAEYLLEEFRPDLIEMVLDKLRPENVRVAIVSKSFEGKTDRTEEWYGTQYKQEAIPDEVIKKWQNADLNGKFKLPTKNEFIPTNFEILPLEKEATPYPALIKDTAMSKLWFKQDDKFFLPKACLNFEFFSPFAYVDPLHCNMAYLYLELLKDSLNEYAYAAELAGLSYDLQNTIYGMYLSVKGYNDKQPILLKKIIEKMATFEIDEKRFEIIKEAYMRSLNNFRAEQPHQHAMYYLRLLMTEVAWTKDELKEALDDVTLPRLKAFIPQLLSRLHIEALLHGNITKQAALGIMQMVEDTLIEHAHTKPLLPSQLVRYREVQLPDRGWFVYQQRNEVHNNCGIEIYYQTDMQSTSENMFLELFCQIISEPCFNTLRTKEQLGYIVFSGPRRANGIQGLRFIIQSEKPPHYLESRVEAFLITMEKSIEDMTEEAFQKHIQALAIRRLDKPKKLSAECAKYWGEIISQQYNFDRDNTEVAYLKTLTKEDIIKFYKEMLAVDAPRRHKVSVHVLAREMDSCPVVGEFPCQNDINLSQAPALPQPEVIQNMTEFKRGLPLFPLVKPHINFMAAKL

[5] = NIH3T3 cell viability loss – ATP luminescence, mouse fibroblasts, counter-screen, dose response (AID 2010); type: functional, cell-based;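 further: cells exposed to compound for about 90 hours before reading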
HEK293 [6] = test: membrane integrity loss in HEK cells – cell-based, fluorescence, cytotoxicity control for IDE activator project, dose response (AID 588440); type: functional; conditions: Homo sapiens;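 further: cytotoxicity by LDH release measuring loss of membrane integrity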
Vero = test: mammalian cell viability reduction – secondary assay, cytotoxicity control for West Nile virus antiviral project, dose response (AID 1650); type: functional; conditions: Chlorocebus sabaeus
Insulin-degrading enzyme [7] = molecular target: T1, Insulin-degrading enzyme; test: cellular IDE activation of Abeta substrate cleavage – fluorescence polarization, HEK cells, dose response (AID 588439); type: functional, cell-based
[8] = Trypanosoma cruzi growth suppression in host cells – NIH3T3 host cells, beta-gal luminescence, confirmation (AID 2044); type: functional, cell-based;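 further: intracellular parasites grown in NIH/3T3 mouse fibroblasts as host cells; luminescent beta-galactosidase reporter signal from transgenic T. cruzi replicating inside host cells; inhibitors lower the luminescence signal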
[9] = molecular target: Dual specificity tyrosine-phosphorylation-regulated kinase 1A (Rattus norvegicus, UniProt Q63470); type: biochemical, Homo sapiens
[10] = molecular target: Dual specificity protein kinase CLK1 (Homo sapiens, UniProt P49759); test: inhibition of human CLK1 activity – biochemical, cherry-picked samples, selectivity assay for Dyrk1A inhibitor project, dose response (AID 588811)
Interleukin-8 = molecular target: T2, Interleukin-8 (Homo sapiens, UniProt P10145); test: Dose Response confirmation of uHTS small molecule hits for cystic fibrosis induced NFkb Inhibitors in a PAF-induced IL8 counterscreen.; type: functional; conditions: read-out: IC50_Mean
T2 sequence (P10145 whole entry): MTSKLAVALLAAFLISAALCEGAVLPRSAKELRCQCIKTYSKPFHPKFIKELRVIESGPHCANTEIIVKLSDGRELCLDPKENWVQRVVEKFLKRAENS

Chain of CAAX prenyl protease 2 (Q9Y256 whole entry): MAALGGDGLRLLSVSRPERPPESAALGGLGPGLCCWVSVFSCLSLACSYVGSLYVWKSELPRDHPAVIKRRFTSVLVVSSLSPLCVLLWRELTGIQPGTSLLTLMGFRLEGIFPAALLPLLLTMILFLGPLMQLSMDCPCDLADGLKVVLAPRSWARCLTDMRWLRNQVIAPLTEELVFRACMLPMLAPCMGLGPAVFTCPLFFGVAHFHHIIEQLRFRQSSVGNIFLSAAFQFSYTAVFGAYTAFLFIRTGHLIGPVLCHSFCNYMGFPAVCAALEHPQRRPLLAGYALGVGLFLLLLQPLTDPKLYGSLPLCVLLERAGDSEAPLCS
Chain of Disintegrin and metalloproteinase domain-containing protein 17 (P78536 whole entry, the tested form may be a part): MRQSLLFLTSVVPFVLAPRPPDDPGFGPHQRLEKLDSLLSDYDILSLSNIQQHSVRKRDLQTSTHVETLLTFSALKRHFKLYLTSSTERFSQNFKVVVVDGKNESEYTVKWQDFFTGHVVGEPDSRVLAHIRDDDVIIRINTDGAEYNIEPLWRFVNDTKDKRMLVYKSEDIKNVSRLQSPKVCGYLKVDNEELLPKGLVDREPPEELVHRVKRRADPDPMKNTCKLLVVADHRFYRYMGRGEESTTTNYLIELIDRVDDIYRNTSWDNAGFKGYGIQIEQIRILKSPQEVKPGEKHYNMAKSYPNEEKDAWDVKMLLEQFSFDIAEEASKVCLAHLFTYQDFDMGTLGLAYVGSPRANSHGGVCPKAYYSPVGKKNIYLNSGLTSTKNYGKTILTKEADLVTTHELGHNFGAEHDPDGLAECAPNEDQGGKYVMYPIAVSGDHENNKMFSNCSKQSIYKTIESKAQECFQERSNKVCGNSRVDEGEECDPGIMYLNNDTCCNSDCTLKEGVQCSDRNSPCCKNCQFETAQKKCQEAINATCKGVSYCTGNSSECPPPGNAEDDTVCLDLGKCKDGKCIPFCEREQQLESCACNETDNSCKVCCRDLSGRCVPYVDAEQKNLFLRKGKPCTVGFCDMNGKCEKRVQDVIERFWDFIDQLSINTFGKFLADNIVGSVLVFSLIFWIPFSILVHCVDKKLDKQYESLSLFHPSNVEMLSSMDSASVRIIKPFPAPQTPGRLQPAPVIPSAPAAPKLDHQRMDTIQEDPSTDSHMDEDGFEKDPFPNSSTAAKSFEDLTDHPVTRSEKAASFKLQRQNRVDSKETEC
Chain of Dual specificity protein kinase CLK1 (P49759 whole entry): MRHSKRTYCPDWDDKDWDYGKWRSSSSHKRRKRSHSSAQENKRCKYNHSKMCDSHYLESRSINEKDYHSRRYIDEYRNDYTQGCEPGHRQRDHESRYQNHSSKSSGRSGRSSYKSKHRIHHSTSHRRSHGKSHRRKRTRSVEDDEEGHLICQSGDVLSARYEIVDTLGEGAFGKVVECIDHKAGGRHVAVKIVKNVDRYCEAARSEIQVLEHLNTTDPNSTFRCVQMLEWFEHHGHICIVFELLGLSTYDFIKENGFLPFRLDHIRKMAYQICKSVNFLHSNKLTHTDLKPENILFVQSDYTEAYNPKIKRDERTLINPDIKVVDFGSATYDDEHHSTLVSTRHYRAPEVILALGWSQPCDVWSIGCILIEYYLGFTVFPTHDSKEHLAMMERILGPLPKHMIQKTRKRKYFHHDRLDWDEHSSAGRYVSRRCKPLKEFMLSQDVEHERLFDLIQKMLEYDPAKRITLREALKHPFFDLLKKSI

AC50 (CAAX prenyl protease 2): > 100 µM (inactive) | IC50 [2]: > 69.5 µM (inactive)
SMILES: O=C(Nc1cccc2ccccc12)c1ccc(OC(=S)N2CCOCC2)cc1
IC50 [1]: > 69.5 µM (inactive)

SMILES: CCN1CCN(c2cc(C)c3cc(NC(=S)N4CCN(c5ccccc5)CC4)ccc3n2)CC1
EC50 (HEK293 [3]): > 54.7 µM (inactive) | EC50 (Insulin-degrading enzyme [4]): > 54.7 µM (inactive) | EC50 [5]: > 60 µM (not active) | IC50 (HEK293 [6]): > 89.2 µM (inactive) | CC50 (Vero): 19.5 µM (active) | EC50 (Insulin-degrading enzyme [7]): > 54.7 µM (inactive) | EC50 [8]: 1.79 µM (active)

AC50 [9]: 0.811 µM (active) | AC50 [10]: 0.19 µM (active) | IC50 (Interleukin-8): 10.5 µM (inactive)
SMILES: CC1Cc2ccccc2N1c1ncnc2nc[nH]c12 (stereo not drawn)
